# Data as given in PMC6175941, “Hydrophobic alkyl chains substituted to the 8-position of cyclic nucleotides enhance activation of CNG and HCN channels by an intricate enthalpy - entropy compensation” (Scientific Reports, 2018).
# Key:
# Assay type in all cases: cell-based
# [1] = target: T1, homotetrameric HCN2 channels (Mus musculus, UniProt O88703); assay: Concentration-activation relationship of homotetrameric HCN2 channels, inside-out patches of Xenopus oocytes; settings: for H (Hill coefficient) / EC50: homotetrameric HCN2 channels, mean; for EC50: pre-activation at -130 mV, instantaneous current at -100 mV
# T1 construct: expressed in transfected cells; host or cells: Xenopus laevis oocytes injected with cRNA; inside-out patches
# T1 sequence (O88703 1-863): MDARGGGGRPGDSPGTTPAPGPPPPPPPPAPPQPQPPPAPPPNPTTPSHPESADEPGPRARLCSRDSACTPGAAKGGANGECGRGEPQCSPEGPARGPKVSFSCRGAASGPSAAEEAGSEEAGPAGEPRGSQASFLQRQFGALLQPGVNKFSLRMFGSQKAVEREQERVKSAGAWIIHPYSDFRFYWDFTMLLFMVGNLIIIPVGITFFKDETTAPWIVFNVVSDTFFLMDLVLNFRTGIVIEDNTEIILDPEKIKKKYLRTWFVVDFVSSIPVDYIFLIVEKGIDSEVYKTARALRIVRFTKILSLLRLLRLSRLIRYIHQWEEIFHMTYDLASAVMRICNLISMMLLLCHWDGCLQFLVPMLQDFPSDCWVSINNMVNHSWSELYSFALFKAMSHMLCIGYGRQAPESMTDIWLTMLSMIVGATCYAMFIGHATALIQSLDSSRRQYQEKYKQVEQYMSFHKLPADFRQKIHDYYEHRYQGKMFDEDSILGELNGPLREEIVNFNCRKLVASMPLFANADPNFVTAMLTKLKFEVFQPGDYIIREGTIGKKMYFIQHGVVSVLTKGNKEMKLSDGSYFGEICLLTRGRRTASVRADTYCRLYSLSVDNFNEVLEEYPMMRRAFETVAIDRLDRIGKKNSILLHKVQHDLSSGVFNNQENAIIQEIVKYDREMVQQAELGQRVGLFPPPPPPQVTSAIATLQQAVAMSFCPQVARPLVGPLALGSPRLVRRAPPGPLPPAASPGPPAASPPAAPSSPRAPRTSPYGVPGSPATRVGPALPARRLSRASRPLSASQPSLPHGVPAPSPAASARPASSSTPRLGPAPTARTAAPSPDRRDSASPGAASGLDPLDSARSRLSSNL
# Method: (§1) The subunits CNGA2 (accession No. AF126808), CNGA4 (accession No. U12623) and CNGB1b (accession No. AF068572) of rat olfactory channels as well as mouse HCN2 channels (NM008226) were subcloned in front of the T7 promoter of pGEMHEnew. The respective cRNAs were produced by using the mMESSAGE mMACHINE T7 Kit (Ambion, Austin, TX).
# (§2) The oocytes were exposed to collagenase A (3 mg/ml; Roche, Grenzach-Wyhlen, Germany) for 105 min in Ca^2+-free Barth’s solution containing (in mM) 82.5 NaCl, 2 KCl, 1 MgCl2 2, and 5 Hepes, pH 7.4. Oocytes at stages IV and V were injected with 50–130 ng of cRNA encoding either CNGA2, CNGA2:CNGA4:CNGB1b (2:1:1 ratio) or HCN2 channels either manually of or by means of an injection robot (RoboInject®). The injected oocytes were incubated at 18 °C for up to 6 days in Barth’s solution containing (in mM) 84 NaCl, 1 KCl, 2.4 NaHCO3, 0.82 MgSO4, 0.41 CaCl2, 0.33 Ca(NO3)2, 7.5 TRIS, cefuroxime (4.0 µg × ml^−1), and penicillin/streptomycin (100 µg × ml^−1), pH 7.4.
# (§3) Macroscopic currents were recorded from inside-out patches of the oocytes by using standard patch-clamp techniques. The patch pipettes were pulled from quartz tubing (P-2000, Sutter Instrument, Novato, USA) with an outer and inner diameter of 1.0 and 0.7 mm (VITROCOM, New Jersey, USA). The corresponding pipette resistance was 0.9–2.3 MΩ. The bath and pipette solution contained (in mM): 150 KCl, 1 EGTA, 5 Hepes (pH 7.4 with KOH) for CNG measurements. For HCN measurements the bath solution contained 100 mM KCl, 10 mM EGTA, 10 mM HEPES (pH 7.2) and 120 mM KCl, 10 mM HEPES, and 1.0 mM CaCl2 (pH 7.2) in the pipette. Recording was carried out at room temperature using an Axopatch 200B amplifier (Axon Instruments, Foster City, CA). Electrophysiology was controlled by the Patchmaster-software (HEKA Elektronik Dr. Schulze GmbH, Lambrecht, Germany). The sampling rate was 5 kHz and the filter implemented in the amplifier (4-pole Bessel) was set to 2 kHz. Measurements in HCN2 channels were generally started 3.5 min after patch excision to minimize channel run down during the measurement[14],[27],[70]. The solutions with the ligand concentrations to be tested were applied via a multi-barrel device to the patches with a flow rate of 0.8 to 1.2 ml/min.
# (§4) I is the actual current amplitude and Imax the maximum current amplitude at a saturating cNMP concentration specified for each cNMP and channel. EC50 is the cNMP concentration generating the half maximum current and H the Hill coefficient.
# [2] = target: T2, homotetrameric CNGA2 channels (Rattus norvegicus, UniProt Q00195); assay: Concentration-activation relationship of homotetrameric CNGA2 channels, inside-out patches of Xenopus oocytes
# T2 construct: expressed in transfected cells; host or cells: Xenopus laevis oocytes injected with cRNA; inside-out patches
# T2 sequence (Q00195 1-664): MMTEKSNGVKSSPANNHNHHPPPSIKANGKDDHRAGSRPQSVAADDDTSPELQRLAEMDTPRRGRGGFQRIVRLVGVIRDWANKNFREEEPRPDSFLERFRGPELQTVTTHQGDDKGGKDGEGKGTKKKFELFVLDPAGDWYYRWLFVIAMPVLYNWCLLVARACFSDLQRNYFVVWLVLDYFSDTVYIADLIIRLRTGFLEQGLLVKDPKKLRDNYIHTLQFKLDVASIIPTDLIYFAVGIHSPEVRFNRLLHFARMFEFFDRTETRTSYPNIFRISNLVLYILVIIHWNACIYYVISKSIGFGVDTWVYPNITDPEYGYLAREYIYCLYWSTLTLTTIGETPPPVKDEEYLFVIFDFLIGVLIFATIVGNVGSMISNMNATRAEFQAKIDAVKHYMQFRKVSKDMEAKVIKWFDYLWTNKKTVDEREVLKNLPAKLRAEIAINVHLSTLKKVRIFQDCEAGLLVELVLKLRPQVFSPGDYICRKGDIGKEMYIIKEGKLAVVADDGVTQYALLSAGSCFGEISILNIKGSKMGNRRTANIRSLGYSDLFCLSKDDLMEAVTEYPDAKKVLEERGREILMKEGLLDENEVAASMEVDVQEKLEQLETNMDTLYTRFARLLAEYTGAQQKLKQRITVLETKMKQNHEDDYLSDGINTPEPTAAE
# Method: (§5) For each cNMP derivative a complete concentration-activation relationship was recorded, and the data points were fitted with the Hill equation (equation 1) yielding the concentration of half maximum activation (EC50) and the Hill coefficient H (Fig. 1b,c).
# as §1
# as §2, with “Oocytes” for “The oocytes were exposed to collagenase A (3 mg/ml; Roche, Grenzach-Wyhlen, Germany) for 105 min in Ca^2+-free Barth’s solution containing (in mM) 82.5 NaCl, 2 KCl, 1 MgCl2 2, and 5 Hepes, pH 7.4. Oocytes”
# as §3, §4
# [3] = target: T3, heterotetrameric CNGA2:CNGA4:CNGB1b channels (Rattus norvegicus, UniProt A0A8I5ZN27+Q00195+Q64359); assay: Concentration-activation relationship of heterotetrameric CNGA2:CNGA4:CNGB1b channels, inside-out patches of Xenopus oocytes
# T3 construct: expressed in transfected cells; host or cells: Xenopus laevis oocytes co-injected with cRNAs (2:1:1); inside-out patches
# Method: as §5, §1
# as §2, with “Oocytes” for “The oocytes were exposed to collagenase A (3 mg/ml; Roche, Grenzach-Wyhlen, Germany) for 105 min in Ca^2+-free Barth’s solution containing (in mM) 82.5 NaCl, 2 KCl, 1 MgCl2 2, and 5 Hepes, pH 7.4. Oocytes”
# as §3, §4
# [4] = fit of the concentration-activation relationship shown in Fig. 1b, CNGA2 channels
# [5] = homotetrameric CNGA2 channels, late current at +10 mV, mean
# [6] = homotetrameric CNGA2 channels, mean
# [7] = fit of the concentration-activation relationship shown in Fig. 1c, CNGA2:CNGA4:CNGB1b channels
# [8] = heterotetrameric CNGA2:CNGA4:CNGB1b channels, late current at +10 mV, mean
# [9] = heterotetrameric CNGA2:CNGA4:CNGB1b channels, mean
# [10] = CNGA2 channels, numeric mean values of box plots (Fig. 2a,b, Fig. 3) and text
# T3 sequence (Q64359 whole entry, one chain of several): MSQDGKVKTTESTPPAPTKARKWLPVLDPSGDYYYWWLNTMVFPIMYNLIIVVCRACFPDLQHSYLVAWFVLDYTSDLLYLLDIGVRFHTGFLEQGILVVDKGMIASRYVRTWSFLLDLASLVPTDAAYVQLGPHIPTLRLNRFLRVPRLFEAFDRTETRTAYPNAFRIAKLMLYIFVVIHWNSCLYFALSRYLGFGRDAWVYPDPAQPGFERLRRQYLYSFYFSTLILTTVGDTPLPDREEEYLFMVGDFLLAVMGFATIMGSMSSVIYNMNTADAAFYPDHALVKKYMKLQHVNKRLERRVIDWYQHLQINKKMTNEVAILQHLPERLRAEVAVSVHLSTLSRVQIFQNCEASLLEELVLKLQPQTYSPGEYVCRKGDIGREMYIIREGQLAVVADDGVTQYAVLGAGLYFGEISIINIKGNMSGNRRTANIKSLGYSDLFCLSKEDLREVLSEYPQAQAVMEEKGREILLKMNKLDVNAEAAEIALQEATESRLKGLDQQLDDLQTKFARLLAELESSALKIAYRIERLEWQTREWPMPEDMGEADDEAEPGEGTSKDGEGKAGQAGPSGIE
# T3 sequence (A0A8I5ZN27 1-858 isoform A0A8I5ZN27-2, one chain of several): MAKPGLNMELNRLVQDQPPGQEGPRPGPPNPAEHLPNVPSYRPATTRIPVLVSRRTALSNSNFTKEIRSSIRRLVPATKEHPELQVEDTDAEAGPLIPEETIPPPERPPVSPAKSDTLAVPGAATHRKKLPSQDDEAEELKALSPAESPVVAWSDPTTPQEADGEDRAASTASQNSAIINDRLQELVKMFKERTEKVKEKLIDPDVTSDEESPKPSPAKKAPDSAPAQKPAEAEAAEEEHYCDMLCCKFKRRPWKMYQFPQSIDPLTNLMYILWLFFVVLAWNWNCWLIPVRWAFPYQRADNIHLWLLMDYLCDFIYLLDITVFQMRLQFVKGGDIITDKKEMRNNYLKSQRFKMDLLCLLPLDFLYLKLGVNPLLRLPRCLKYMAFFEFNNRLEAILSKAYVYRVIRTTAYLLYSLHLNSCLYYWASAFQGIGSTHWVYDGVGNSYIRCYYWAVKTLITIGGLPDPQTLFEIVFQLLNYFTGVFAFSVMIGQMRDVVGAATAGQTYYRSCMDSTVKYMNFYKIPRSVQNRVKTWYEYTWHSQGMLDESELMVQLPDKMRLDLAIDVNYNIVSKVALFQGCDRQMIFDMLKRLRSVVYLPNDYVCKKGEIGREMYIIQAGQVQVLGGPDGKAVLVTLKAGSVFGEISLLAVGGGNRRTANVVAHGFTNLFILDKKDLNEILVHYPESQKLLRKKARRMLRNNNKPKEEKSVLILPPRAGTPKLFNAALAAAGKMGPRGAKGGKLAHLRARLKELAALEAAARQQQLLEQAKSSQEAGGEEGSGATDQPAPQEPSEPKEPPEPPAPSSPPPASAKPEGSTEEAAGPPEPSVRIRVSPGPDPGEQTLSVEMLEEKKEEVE
SMILES,"EC50 [2, 5] [nM]","H (Hill coefficient) [2, 6]","EC50 [3, 8] [nM]","H (Hill coefficient) [3, 9]",also measured
"Nc1ncnc2c1ncn2C1OC2COP(=O)(O)OC2C1O (stereo not shown) [1A, cAMP, reference compound]",,,,,"H ([1]; individual experiment, Fig. 5b, HCN2 channels): 1.28"
"Nc1nc2c(ncn2C2OC3COP(=O)(O)OC3C2O)c(=O)[nH]1 (stereo not shown) [1G, cGMP, reference compound]",1800,2.6,1300,2.5,"EC50 [2, 4]: 1470 nM; H [2, 4]: 2.52; EC50 [3, 7]: 1240 nM; H [3, 7]: 2.09"
"NCCSc1nc2c(N)ncnc2n1C1OC2COP(=O)(O)OC2C1O (stereo not shown) [2A, 8-AET-cAMP]",,1.8,13300,,"agonist type ([2]; CNGA2 channels): partial agonist; EC50 [2, 10]: 128000 nM"
"NCCSc1nc2c(=O)[nH]c(N)nc2n1C1OC2COP(=O)(O)OC2C1O (stereo not shown) [2G, 8-AET-cGMP]",,2.4,1500,1.8,"EC50 [2, 10]: 830 nM"
"CC(=O)NCCSc1nc2c(N)ncnc2n1C1OC2COP(=O)(O)OC2C1O (stereo not shown) [3A, 8-(Ac)AET-cAMP]",,2.3,4100,1.8,"EC50 [2, 10]: 9900 nM; H (Hill coefficient) [1]: 1.7; EC50 [1]: 70.6 nM"
"NCCCCCCSc1nc2c(N)ncnc2n1C1OC2COP(=O)(O)OC2C1O (stereo not shown) [4A, 8-AHT-cAMP]",3100,2.3,1400,2.5,
"CC(=O)NCCCCCCSc1nc2c(N)ncnc2n1C1OC2COP(=O)(O)OC2C1O (stereo not shown) [5A, 8-(Ac)AHT-cAMP]",1400,3.1,950,2.5,H (Hill coefficient) [1]: 0.8; EC50 [1]: 19.7 nM
"CC(=O)NCCOCCOCCSc1nc2c(=O)[nH]c(N)nc2n1C1OC2COP(=O)(O)OC2C1O (stereo not shown) [8G, 8-(Ac)APT-cGMP]",550,2.7,1100,1.6,
"CC(=O)NCCOCCOCCC(=O)NCCSc1nc2c(N)ncnc2n1C1OC2COP(=O)(O)OC2C1O (stereo not shown) [9A, 8-(Ac)APET-cAMP]",46200,2.3,7100,2.2,
"CC(=O)NCCOCCOCCC(=O)NCCSc1nc2c(=O)[nH]c(N)nc2n1C1OC2COP(=O)(O)OC2C1O (stereo not shown) [9G, 8-(Ac)APET-cGMP]",520,2.3,1100,2.0,
"CC(=O)NCC(=O)NCC(=O)NCCSc1nc2c(N)ncnc2n1C1OC2COP(=O)(O)OC2C1O (stereo not shown) [11A, 8-(Ac)AGGET-cAMP]",29400,1.9,5100,2.5,"EC50 [2, 10]: 29400 nM"
"CC(=O)NCC(=O)NCC(=O)NCCSc1nc2c(=O)[nH]c(N)nc2n1C1OC2COP(=O)(O)OC2C1O (stereo not shown) [11G, 8-(Ac)AGGET-cGMP]",330,2.4,1000,1.7,

# Further lines, with some results ahead:
"EC50 [2, 5] [nM]","H (Hill coefficient) [2, 6]","EC50 [3, 8] [nM]","H (Hill coefficient) [3, 9]",SMILES,also measured
,1.8,280,2.0,"CC(=O)NCCSc1nc2c(=O)[nH]c(N)nc2n1C1OC2COP(=O)(O)OC2C1O (stereo not shown) [3G, 8-(Ac)AET-cGMP]","EC50 [2, 10]: 170 nM"
90,2.5,620,1.3,"NCCCCCCSc1nc2c(=O)[nH]c(N)nc2n1C1OC2COP(=O)(O)OC2C1O (stereo not shown) [4G, 8-AHT-cGMP]",
630,2.3,290,3.9,"NCCCCCCCCCCSc1nc2c(N)ncnc2n1C1OC2COP(=O)(O)OC2C1O (stereo not shown) [6A, 8-ADT-cAMP]","effect at high concentration ([3]; CNGA2:CNGA4:CNGB1b channels, at concentrations > 2 µM): unusual inhibition"
60,1.8,300,1.6,"NCCCCCCCCCCSc1nc2c(=O)[nH]c(N)nc2n1C1OC2COP(=O)(O)OC2C1O (stereo not shown) [6G, 8-ADT-cGMP]",
50,2.2,140,1.9,"CC(=O)NCCCCCCCCCCSc1nc2c(=O)[nH]c(N)nc2n1C1OC2COP(=O)(O)OC2C1O (stereo not shown) [7G, 8-(Ac)ADT-cGMP]",
340,2.6,630,1.9,"CC(=O)NCC(=O)NCCSc1nc2c(=O)[nH]c(N)nc2n1C1OC2COP(=O)(O)OC2C1O (stereo not shown) [10G, 8-(Ac)AGET-cGMP]",
